*1 amine or outer side, *2 acyl side, *3 side chain or, on linkers, in order; H or OH if unused. Where a SMILES comes first, the peptide text is derived from it. Bridges are numbered along the chain shown (N, C = ends). Roman numbers before positions name the chains, in order. [ ]: non-standard residue; d: D form. ξ: configuration not given here. Phe(4-NH2) = Nc1ccc(C[C@H](N)C(=O)O)cc1; NMehCys = CN[C@@H](CCS)C(=O)O; Thr(3ξ) = CC(O)[C@H](N)C(=O)O; Dap = NC[C@H](N)C(=O)O; X1 = O=C(C[*:1])[*:2]
What was measured:
[1] = P2045 radiolabeled with radioactive isotopes of rhenium; versus Depreotide; cited from earlier work
[2] = test system: SSTR; conditions: P2045 radiolabeled with radioactive isotopes of rhenium; versus Depreotide; cited from earlier work
[3] = cited from earlier work
[4] = test system: SSTR2; test: SSTR2 expression in small cell cell lines after 24 hours of incubation (FIG. 2, FIG. 3); format: cell-based; conditions: H69, H187 and H417 cell lines, 3 and 5 mM valproic acid, versus beta-actin (control)
Description: FIG. 3 graphically quantifies the expression of SSTR2 in small cell cell lines after 24 hours of incubation with 3 and 5 mM valproic acid versus the demethylating agent, Decitabine.
FIG. 3 graphically quantifies the expression of SSTR2 […].

[5] = intravenously, 1.5 mg/m^2, daily×5, every 21 days; cited from earlier work

CC(O)[C@H](NC(=O)[C@H](CS)NC(=O)[C@H](Cc1ccc(N)cc1)NC(=O)[C@@H](N)CNC(=O)CSCC[C@H]1C(=O)N[C@@H](Cc2ccc(O)cc2)C(=O)N[C@H](Cc2c[nH]c3ccccc23)C(=O)N[C@@H](CCCCN)C(=O)N[C@@H](C(C)O)C(=O)N[C@@H](Cc2ccccc2)C(=O)N1C)C(=O)N[C@@H](CO)C(=O)O (stereo partly drawn) [P2045, cyclo-[Tyr-(D-Trp)-Lys-Thr-Phe-(N-Me)Hcy]CH2CO-β-Dap-Phe(4-NH2)-Cys-Thr-Ser-OH)]] (I: cyclo(F[NMehCys]Y[dW]K[Thr(3ξ)]) / II: H-[Dap][Phe(4-NH2)]C[Thr(3ξ)]S-OH; linker I:2-II:1 via X1)
kidney and whole body retention [1]: lower kidney and whole body retention | SSTR affinity [2]: retains the SSTR affinity of Depreotide

CCCC(CCC)C(=O)O [valproic acid]
solubility in organic solvents [3]: very soluble | SSTR2 expression [4]: upregulation of SSTR2

CC[C@@]1(O)C(=O)OCc2c1cc1n(c2=O)Cc2cc3c(CN(C)C)c(O)ccc3nc2-1 [topotecan]
most common toxicities [5]: hematologic (grade 4 neutropenia, thrombocytopenia and grade 3/4 anemia)
